Results: patent US20250135006A1, “AMPHIPHILIC TLR7/8 ADJUVANTS AND USES THEREOF” (Pfizer Inc., priority 2023, published 2025)

Tests used:
[1] = target: T1, human toll like receptor 7 (hTLR7) (Homo sapiens, UniProt Q9NYK1); assay: hTLR7 in-vitro functional assay (HEK-Blue hTLR7 SEAP reporter); type: cell-based; details: HEK-Blue hTLR7 cells, overnight incubation
T1 construct: host or cells: HEK293 (HEK-Blue hTLR7)
T1 sequence (Q9NYK1 27-1049): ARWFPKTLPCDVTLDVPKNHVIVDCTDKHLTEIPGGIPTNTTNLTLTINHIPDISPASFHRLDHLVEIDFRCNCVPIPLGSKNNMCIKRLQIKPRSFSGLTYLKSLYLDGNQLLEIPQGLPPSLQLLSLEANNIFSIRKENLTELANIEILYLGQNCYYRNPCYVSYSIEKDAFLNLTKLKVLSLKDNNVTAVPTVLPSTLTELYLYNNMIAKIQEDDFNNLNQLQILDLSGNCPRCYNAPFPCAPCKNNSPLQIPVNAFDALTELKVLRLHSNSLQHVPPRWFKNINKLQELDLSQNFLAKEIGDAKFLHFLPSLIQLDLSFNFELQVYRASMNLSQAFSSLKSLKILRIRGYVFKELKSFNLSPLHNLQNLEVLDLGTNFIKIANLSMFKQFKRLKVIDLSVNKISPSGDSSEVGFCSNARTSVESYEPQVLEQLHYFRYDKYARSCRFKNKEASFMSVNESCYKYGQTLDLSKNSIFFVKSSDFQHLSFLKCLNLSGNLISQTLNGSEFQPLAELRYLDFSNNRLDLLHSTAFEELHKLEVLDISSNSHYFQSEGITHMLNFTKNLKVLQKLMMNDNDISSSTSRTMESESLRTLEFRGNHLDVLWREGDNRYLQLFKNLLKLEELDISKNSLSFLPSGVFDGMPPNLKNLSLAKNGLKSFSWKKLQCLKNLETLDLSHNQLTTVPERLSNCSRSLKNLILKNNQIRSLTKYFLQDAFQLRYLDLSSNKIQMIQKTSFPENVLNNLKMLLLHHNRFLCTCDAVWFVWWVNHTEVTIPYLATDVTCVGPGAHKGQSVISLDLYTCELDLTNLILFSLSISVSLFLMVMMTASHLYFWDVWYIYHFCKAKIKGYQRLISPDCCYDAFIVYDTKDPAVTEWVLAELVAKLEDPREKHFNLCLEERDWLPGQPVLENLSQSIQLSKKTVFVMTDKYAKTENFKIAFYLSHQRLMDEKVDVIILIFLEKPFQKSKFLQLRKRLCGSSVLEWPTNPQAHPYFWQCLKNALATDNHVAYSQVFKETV
Text: (§1) To determine the ability of test compounds to activate the human toll like receptor 7 (hTLR7) or human toll like receptor 8 (hTLR8), cell-based reporter systems were utilized. HEK293 cells stably overexpressing either hTLR7 or hTLR8 along with a reporter gene containing an optimized secreted embryonic alkaline phosphatase gene (SEAP), under the control of the IFN-b minimal promoter fused to five NF-kB and AP-1-binding sites, were obtained from Invivogen (HEK-Blue™ hTLR7, cat #Hkb-htlr7; HEK-Blue™ hTLR8, cat #Hkb-htlr8). Stimulation of hTLR7 or hTLR8 in these cells activates NF-kB and AP-1 and induces the production of SEAP which can be quantified using an alkaline phosphatase detection reagent.
(§2) On day one of the assay, compounds were prepared using 11-point half-log serial dilutions from a 10 mM DMSO stock solution and 50 nL was spotted into 384-well plates (PerkinElmer, cat #6007480). Positive and negative controls were also spotted within the assay plate and were used to determine percent effect during the analysis process. After resuspension in DMEM assay media containing FBS heat inactivated (10%), Glutamax (2 mM) and Penicillin/Streptomycin, 10,000 cells/20 ul/well were added to previously prepared compound plates. Plates were incubated overnight (16-20 hrs) at 37° C. in a 5% CO2 environment. Prewetted Microclime lids (Labcyte, LLS-0310) were used to prevent evaporation. On day two of the assay, QUANTI-Blue™ detection reagent was prepared by reconstituting QUANTI-Blue™ powder (InvivoGen, Rep-qb1) with 100 ml of sterile water and allowed to equilibrate to 37° C. for 15 minutes. 20 ul of QUANTI-Blue™ detection reagent was added to each well and plates were incubated at room temperature for 180 min. At the end of the incubation, plates were read on an Envision (Perkin Elmer) plate reader capturing absorbance at 650 nm.
(§3) Using Positive (tool compound) and Negative (DMSO) controls, the percent (%) effect was calculated for each sample using the following equation: […]
(§4) The % effect at each concentration of compound was calculated utilizing the ABase software suite (IBDS) and was relative to the amount of SEAP produced in the positive and negative control wells contained within each assay plate. The concentrations and % effect values for test compounds were fit using a 4-parameter logistic model in ABase and the concentration of compound that produced 50% response (EC50) was calculated.

[2] = target: T2, human toll like receptor 8 (hTLR8) (Homo sapiens, UniProt Q9NR97); assay: hTLR8 in-vitro functional assay (HEK-Blue hTLR8 SEAP reporter); type: cell-based; details: HEK-Blue hTLR8 cells, overnight incubation
T2 construct: host or cells: HEK293 (HEK-Blue hTLR8)
T2 sequence (Q9NR97 27-1041): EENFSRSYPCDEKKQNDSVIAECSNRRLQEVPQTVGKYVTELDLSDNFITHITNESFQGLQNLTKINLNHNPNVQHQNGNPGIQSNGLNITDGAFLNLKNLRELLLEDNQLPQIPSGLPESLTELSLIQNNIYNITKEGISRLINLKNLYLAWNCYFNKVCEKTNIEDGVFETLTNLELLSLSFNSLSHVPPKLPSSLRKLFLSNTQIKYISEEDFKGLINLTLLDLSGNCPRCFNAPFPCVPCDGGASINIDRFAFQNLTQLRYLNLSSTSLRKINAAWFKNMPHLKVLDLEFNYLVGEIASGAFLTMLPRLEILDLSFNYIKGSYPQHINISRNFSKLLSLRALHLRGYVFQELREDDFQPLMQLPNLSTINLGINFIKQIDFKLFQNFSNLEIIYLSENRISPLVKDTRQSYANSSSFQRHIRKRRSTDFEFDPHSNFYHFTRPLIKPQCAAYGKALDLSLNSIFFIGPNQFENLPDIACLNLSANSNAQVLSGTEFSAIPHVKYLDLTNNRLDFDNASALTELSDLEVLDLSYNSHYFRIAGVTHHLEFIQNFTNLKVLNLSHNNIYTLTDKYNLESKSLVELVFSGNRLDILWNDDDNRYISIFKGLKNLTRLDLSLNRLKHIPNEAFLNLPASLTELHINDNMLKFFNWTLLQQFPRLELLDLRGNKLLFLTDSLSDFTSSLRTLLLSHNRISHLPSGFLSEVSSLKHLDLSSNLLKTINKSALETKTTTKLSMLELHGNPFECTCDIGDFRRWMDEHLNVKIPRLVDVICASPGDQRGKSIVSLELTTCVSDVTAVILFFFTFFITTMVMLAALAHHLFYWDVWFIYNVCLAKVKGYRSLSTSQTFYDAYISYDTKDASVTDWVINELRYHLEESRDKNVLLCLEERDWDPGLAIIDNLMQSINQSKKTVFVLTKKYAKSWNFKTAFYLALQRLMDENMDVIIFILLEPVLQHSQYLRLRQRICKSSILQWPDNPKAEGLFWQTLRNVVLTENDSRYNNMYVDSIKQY
Text: as §1, §2, §3, §4

## CCCCc1nc2c(N)nc3cc(CCCN4CCN(C(=O)CCOCCOCCOCCOCCOCCOCCOCCOCCOCCOCCOCCOCCOCCOCCOCCOCCOCCOCCOCCOCCOCCOCCOCCOCCNC(=O)CCOCCOCCOCCOCCOCCOCCOCCOCCOCCOCCOCCOCCOCCOCCOCCOCCOCCOCCOCCOCCOCCOCCOCCOCCNC(=O)O[C@H]5CC[C@@]6(C)C(=CC[C@H]7[C@@H]8CC[C@H]([C@H](C)CCCC(C)C)[C@@]8(C)CC[C@@H]76)C5)CC4)ccc3c2n1CC(C)(CO)CO [Compound 8, (3beta,20R)-cholest-5-en-3-yl {151-[4-(3-{4-amino-2-butyl-1-[3-hydroxy-2-(hydroxymethyl)-2-methylpropyl]-1H-imidazo[4,5-c]quinolin-7-yl}propyl)piperazin-1-yl]-75,151-dioxo-3,6,9,12,15,18,21,24,27,30,33,36,39,42,45,48,51,54,57,60,63,66,69,72,79,82,85,88,91,94,97,100,103,106,109,112,115,118,121,124,127,130,133,136,139,142,145,148-octatetracontaoxa-76-azahenpentacontahect-1-yl}carbamate]
[1]
  EC50: 150 nM
[2]
  EC50: 731 nM

## CCCCc1nc2c(N)nc3cc(CCCN4CCN(C(=O)CCOCCOCCOCCOCCOCCOCCOCCOCCOCCOCCOCCOCCOCCOCCOCCOCCOCCOCCOCCOCCOCCOCCOCCOCCNC(=O)O[C@H]5CC[C@@]6(C)C(=CC[C@H]7[C@@H]8CC[C@H]([C@H](C)CCCC(C)C)[C@@]8(C)CC[C@@H]76)C5)CC4)ccc3c2n1CC(C)(CO)CO [Compound 9, (3beta)-cholest-5-en-3-yl {75-[4-(3-{4-amino-2-butyl-1-[3-hydroxy-2-(hydroxymethyl)-2-methylpropyl]-1H-imidazo[4,5-c]quinolin-7-yl}propyl)piperazin-1-yl]-75-oxo-3,6,9,12,15,18,21,24,27,30,33,36,39,42,45,48,51,54,57,60,63,66,69,72-tetracosaoxapentaheptacont-1-yl}carbamate]
[1]
  EC50: 181 nM
[2]
  EC50: 16000 nM

## CCCCc1nc2c(N)nc3cc(CCCN4CCN(CCCOCCNC(=O)O[C@H]5CC[C@@]6(C)C(=CC[C@H]7[C@@H]8CC[C@H]([C@H](C)CCCC(C)C)[C@@]8(C)CC[C@@H]76)C5)CC4)ccc3c2n1CC(C)(CO)CO [Compound 10, (3beta,20R)-cholest-5-en-3-yl (2-{3-[4-(3-{4-amino-2-butyl-1-[3-hydroxy-2-(hydroxymethyl)-2-methylpropyl]-1H-imidazo[4,5-c]quinolin-7-yl}propyl)piperazin-1-yl]propoxy}ethyl)carbamate]
[1]
  EC50: 186 nM
[2]
  EC50: 9910 nM

## CCCCc1nc2c(N)nc3cc(CCCN4CCN(C(=O)CCOCCOCCOCCOCCNC(=O)O[C@H]5CC[C@@]6(C)C(=CC[C@H]7[C@@H]8CC[C@H]([C@H](C)CCCC(C)C)[C@@]8(C)CC[C@@H]76)C5)CC4)ccc3c2n1CC(C)(CO)CO [Compound 12, (3beta,20R)-cholest-5-en-3-yl {15-[4-(3-{4-amino-2-butyl-1-[3-hydroxy-2-(hydroxymethyl)-2-methylpropyl]-1H-imidazo[4,5-c]quinolin-7-yl}propyl)piperazin-1-yl]-15-oxo-3,6,9,12-tetraoxapentadec-1-yl}carbamate]
[1]
  EC50: 210 nM
[2]
  EC50: 19600 nM

## CCOCc1nc2c(N)nc3cc(CCCN4CCN(C(=O)CCOCCOCCOCCOCCOCCOCCOCCOCCOCCOCCOCCOCCNC(=O)CCOCCOCCOCCOCCNC(=O)O[C@H]5CC[C@@]6(C)C(=CC[C@H]7[C@@H]8CC[C@H]([C@H](C)CCCC(C)C)[C@@]8(C)CC[C@@H]76)C5)CC4)ccc3c2n1CC(C)(CO)CO [Compound 13, (3beta,20R)-cholest-5-en-3-yl {55-[4-(3-{4-amino-2-(ethoxymethyl)-1-[3-hydroxy-2-(hydroxymethyl)-2-methylpropyl]-1H-imidazo[4,5-c]quinolin-7-yl}propyl)piperazin-1-yl]-15,55-dioxo-3,6,9,12,19,22,25,28,31,34,37,40,43,46,49,52-hexadecaoxa-16-azapentapentacont-1-yl}carbamate]
[1]
  EC50: 223 nM
[2]
  EC50: 3330 nM

## CCCCc1nc2c(N)nc3cc(CCCN4CCN(CCCOCCOCCOCCOCCOCCOCCOCCOCCOCCOCCOCCOCCOCCOCCOCCOCCNC(=O)O[C@H]5CC[C@@]6(C)C(=CC[C@H]7[C@@H]8CC[C@H]([C@H](C)CCCC(C)C)[C@@]8(C)CC[C@@H]76)C5)CC4)ccc3c2n1CC(C)(CO)CO [Compound 14, (3beta,20R)-cholest-5-en-3-yl {51-[4-(3-{4-amino-2-butyl-1-[3-hydroxy-2-(hydroxymethyl)-2-methylpropyl]-1H-imidazo[4,5-c]quinolin-7-yl}propyl)piperazin-1-yl]-3,6,9,12,15,18,21,24,27,30,33,36,39,42,45,48-hexadecaoxahenpentacont-1-yl}carbamate]
[1]
  EC50: 236 nM
[2]
  EC50: 22600 nM

## CCCCc1nc2c(N)nc3cc(CCCN4CCN(CCCOCCOCCOCCOCCNC(=O)CCOCCOCCOCCOCCNC(=O)O[C@H]5CC[C@@]6(C)C(=CC[C@H]7[C@@H]8CC[C@H]([C@H](C)CCCC(C)C)[C@@]8(C)CC[C@@H]76)C5)CC4)ccc3c2n1CC(C)(CO)CO [Compound 15, (20R)-cholest-5-en-3beta-yl {31-[4-(3-{4-amino-2-butyl-1-[3-hydroxy-2-(hydroxymethyl)-2-methylpropyl]-1H-imidazo[4,5-c]quinolin-7-yl}propyl)piperazin-1-yl]-15-oxo-3,6,9,12,19,22,25,28-octaoxa-16-azahentriacontan-1-yl}carbamate]
[1]
  EC50: 276 nM
[2]
  EC50: 17600 nM
